Reference: patent USRE40033E1, “Process for preparing 2-methyl-thieno-benzodiazepine” (Eli Lilly and Company, priority 1991, dated 2008)
Each block holds one compound with its values, some of them ahead of it.

What was measured:
patients [1] = settings: cited from earlier work
dogs = experiment: Dog toxicity studies, cholesterol levels; type: in vivo; settings: dosage of 8 mg/kg stated for the 2-ethyl compound
[2] = system: psychiatric patients suffering from schizophrenia; experiment: Clinical trial of flumezapine in psychiatric patients suffering from schizophrenia; type: in vivo, human
From the text: The lead compound from this group, flumezapine, (7-fluoro-2-methyl-10-(4-methyl-1-piperazinyl)-4H-thieno[2,3-b][1,5]-benzodiazepine), was developed to the stage of being clinically administered to psychiatric patients suffering from schizophrenia. A total of 17 patients received treatment with flumezapine before the clinical trial was terminated after consultation with the U.S. Food and Drug Administration, because of an unacceptably high incidence of raised enzyme levels in the treated patients. […] In respect of its tendency to raise liver enzyme levels, flumezapine is similar to chlorpromazine, an antipsychotic which has long been in use but whose safety has been called into question.

patients [3] = settings: compared with flumezapine
mice [4] = experiment: Apomorphine-induced climbing behaviour; type: in vivo
rats [5] = experiment: Conditioned avoidance response; type: in vivo; settings: Rattus norvegicus, read-out: ED50, inhibition of conditioned avoidance response
5-HT-1C receptor = target: T1, 5-HT-1C receptor (Homo sapiens, UniProt P28335); experiment: Activity at the 5-HT-1C receptor; type: binding
T1 sequence (P28335 33-458): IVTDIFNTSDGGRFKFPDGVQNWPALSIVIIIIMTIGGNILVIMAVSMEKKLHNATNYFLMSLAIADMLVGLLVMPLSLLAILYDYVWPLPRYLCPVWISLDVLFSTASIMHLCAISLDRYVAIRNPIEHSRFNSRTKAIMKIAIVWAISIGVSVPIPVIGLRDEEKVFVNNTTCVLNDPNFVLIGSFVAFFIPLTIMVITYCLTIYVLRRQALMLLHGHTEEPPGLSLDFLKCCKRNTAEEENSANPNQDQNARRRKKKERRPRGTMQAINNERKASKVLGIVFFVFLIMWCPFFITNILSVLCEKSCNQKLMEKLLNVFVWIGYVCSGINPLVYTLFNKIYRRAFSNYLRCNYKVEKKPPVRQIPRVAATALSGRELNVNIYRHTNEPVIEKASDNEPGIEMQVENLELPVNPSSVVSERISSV

mice [6] = experiment: Apomorphine-induced hypothermia; type: in vivo
[7] = system: noradrenergic α-receptors; experiment: Pharmacological tests, noradrenergic α-receptors
From the text: These properties indicate that the compound is a potential neuroleptic with relaxant, anxiolytic and anti-emetic properties, and may be useful in treating psychotic conditions such as, but not limited to, schizophrenia, schizophreniform diseases and mania. At lower doses the compound is indicated for use in the treatment of mild anxiety states.

D-1 and D-2 receptors = experiment: Prevention of EEDQ disruption of the apomorphine-induced climbing response; type: in vivo; settings: 24 hour pretreatment with EEDQ
rats [8] = experiment: Multiple conflict schedule (Geller and Seifter); type: in vivo; settings: dosed orally 60 minutes before testing
From the text: Moore, Nicholas A. et al., The Journal of Pharmacology and Experimental Therapeutics. 545-551, 262:2 (1992). The test measures characteristic changes in rates of responding associated with anxiolytic agents. The conflict procedure results are indicative of favorable anxiolytic activity.
The conflict procedure used was based on the method of Geller and Seifter, Psychopharmacologia 1: 482-492, (1960). Rats were trained on a multiple schedule consisting of three components. Individual components were as follows: 1) for 9 minutes, lever pressing was reinforced on a variable interval 30 second schedule (VI 30, reward). This period was signaled by illumination of the houselight alone. 2) During the following 3-minute period, lever presses were recorded but had no programmed consequence (time-out). 3) Lever pressing was reinforced according to a fixed ratio 10 second food presentation (FR10) for 3 minutes; however, each reinforced response was accompanied by an electric current (0.5 mA) being applied to the grid floor for 500 msec (conflict). This component was signaled by illumination of the houselight and three cue lights on the front panel. This sequence of three components (reward/time-out/conflict) was presented twice in the same order during the daily 30 minute session.
After the training procedure, drug testing was initiated. […]

[9] = Studies using radiolabelled compound, saliva residues; type: in vivo
Protocol: For example, in the treatment of adult humans, dosages of from 0.25 to 30 mg, preferably from 1 to 20 mg, per day may be used. A once a day dosage is normally sufficient, although divided doses may be administered. For treatment of psychotic disorders a dose range of from 1 to 20 mg, preferably 2.5 to 15 mg per day is suitable, whereas for mild anxiety states a lower dosage range, such as from 0.25 to 5 mg, preferably 1 to 5 mg, may be more appropriate. In choosing a suitable regimen for patients suffering from psychotic illness it may frequently be necessary to begin with a dosage of from 1 to 20 mg per day and when the illness is under control to reduce to a dosage as low as 1 mg per day.

SMILES: CN1CCN(C2=Nc3cc(Cl)ccc3Nc3ccccc32)CC1 [clozapine]
reported clinical side effects (patients [1]): cause agranulocytosis in some patients

SMILES: CCc1cc2c(s1)Nc1ccccc1N=C2N1CCN(C)CC1 [2-ethyl-4-(4-methyl-1-piperazinyl)-10H-thieno[2,3-b][1,5]benzodiazepine, reference compound]
rise in cholesterol levels (dogs): four out of eight dogs showed a significant rise in cholesterol levels

enzyme levels CPK, SGOT and SGPT in blood samples ([2]; 17 patients treated, trial terminated): in substantial excess of normal values
SMILES: Cc1cc2c(s1)Nc1ccc(F)cc1N=C2N1CCN(C)CC1 [flumezapine, 7-fluoro-2-methyl-10-(4-methyl-1-piperazinyl)-4H-thieno[2,3-b][1,5]-benzodiazepine]
emergence of extrapyramidal side effects as measured on the AIMS scale ([2]; clinical trials): two of the patients showed the emergence of extrapyramidal side effects

SMILES: Cc1cc2c(s1)Nc1ccccc1N=C2N1CCN(C)CC1
plasma levels of creatinine phosphokinase (CPK) (patients [3]): lower than with flumezapine
dose antagonizing apomorphine-induced climbing behaviour (mice [4]): less than 10 mg/kg
ED50 (rats [5]): 4 to 7 mg/kg
rise in cholesterol levels (dogs): did not show any rise in cholesterol levels
activity at the 5-HT-1C receptor (5-HT-1C receptor): active
dose antagonizing apomorphine-induced hypothermia (mice [6]): less than 10 mg/kg
activity at noradrenergic α-receptors [7]: antagonist activity
active dose, prevention of disruption of climbing response by EEDQ (D-1 and D-2 receptors): less than 10 mg/kg
active dose in multiple conflict schedule (rats [8]): less than 5 mg/kg
residues in saliva [9]: residues have been detected in the saliva

SMILES: O=C(CCCN1CCC(O)(c2ccc(Cl)cc2)CC1)c1ccc(F)cc1 [haloperidol]
reported clinical side effects (patients [1]): high incidence of extrapyramidal symptoms
